According to patent US11267826B2, “Penicillin-binding protein inhibitors” (priority 2017, dated 2022):
Where two headings read alike, the source gives them in different places.

Tests used:
S. aureus ATCC 29213 = assay: Broth microdilution MIC assay, S. aureus; assay type: cell-based; settings: Staphylococcus aureus
Procedure: (§1) To determine the ability of test compounds to potentiate the inhibition of the growth of bacterial strains, classic cell based broth microdilution MIC assays were employed. MIC assays are performed according to CLSI methods except where otherwise noted (CLSI, 2011 and CLSI, 2009). The reference strain S. aureus ATCC 29213 and the hyper-permeable E. coli 901C were used to determine the ability of the PBP compounds to inhibit bacterial growth. Briefly, cryo-preserved bacterial cultures of clinical strains are streaked for isolation on appropriate agar medium, in this case Mueller Hinton II agar. Following incubation to allow formation of colonies these plates are sealed with parafilm and stored refrigerated for up to two weeks. For preparation of assay inocula and to ensure low variability, at least 5 colonies are picked from the agar plates with an inoculating loop and aseptically transferred to a culture tube containing 3 mL of Mueller-Hinton Broth (supplemented with divalent cations to required levels based on Manufacturers' certification). The broth culture is grown for 3-5 hours at 37° C. with shaking at 200 rpm. Meanwhile, 2-fold serial dilutions of test compounds are conducted in a 96 well plate with a final volume of 75 μL per well at 2-fold the final desired concentration. After the dilution plates are set up the growing cultures are then diluted in a cuvette containing MH II broth and the optical density is measured at 600 nm. Inocula are diluted such that 75 μL of this culture in Mueller-Hinton Broth results in a starting bacterial concentration of 5×10^5 CFU/mL when added to the dilution plates. The plates are incubated 16-20 hours at 37° C. The MIC is read visually as the lowest concentration well with no bacterial growth.

[1] = test system: hyper-permeable E. coli 901C; assay: Broth microdilution MIC assay, hyper-permeable E. coli; assay type: cell-based; settings: Escherichia coli, read-out: E. coli 901C MIC
Procedure: as §1

[2] = ATCC29213, broth microdilution, 16-20 hours at 37° C., read-out: S. aureus 29213 MIC

| SMILES | MIC (S. aureus ATCC 29213; [2]) [µg/mL] | MIC [1] [µg/mL] | MIC (S. aureus ATCC 29213; ATCC29213, read-out: S. aureus 29213 MIC) [µg/mL] |
| --- | --- | --- | --- |
| COc1cc2c(c(C(=O)O)c1)OB(O)[C@@H](NC(=O)/C(=N\OC(C)(C)C(N)=O)c1csc(N)n1)C2 [Example 81, (R,Z)-3-(2-(((1-amino-2-methyl-1-oxopropan-2-yl)oxy)imino)-2-(2-aminothiazol-4-yl)acetamido)-2-hydroxy-6-methoxy-3,4-dihydro-2H-benzo[e][1,2]oxaborinine-8-carboxylic Acid] | > 128 | < 64 |  |
| O=C(N[C@H]1Cc2cccc(C(=O)O)c2OB1O)/C(=N\O)c1ccccc1 [Example 83, (R,Z)-2-hydroxy-3-(2-(hydroxyimino)-2-phenylacetamido)-3,4-dihydro-2H-benzo[e][1,2]oxaborinine-8-carboxylic Acid] | < 64 | > 128 |  |
| Nc1nc(C(=CCCC(=O)O)C(=O)N[C@H]2Cc3cccc(C(=O)O)c3OB2O)cs1 [Example 84, (R)-3-(2-(2-aminothiazol-4-yl)-5-carboxypent-2-enamido)-2-hydroxy-3,4-dihydro-2H-benzo[e][1,2]oxaborinine-8-carboxylic Acid] | > 128 | < 64 |  |
| Nc1nc(C(=CCCO)C(=O)N[C@H]2Cc3cccc(C(=O)O)c3OB2O)cs1 [Example 85, (R)-3-(2-(2-aminothiazol-4-yl)-5-hydroxypent-2-enamido)-2-hydroxy-3,4-dihydro-2H-benzo[e][1,2]oxaborinine-8-carboxylic Acid] | 64 to 128 | 64 to 128 |  |
| Nc1nc(/C(=C\c2cccnc2)C(=O)N[C@H]2Cc3cccc(C(=O)O)c3OB2O)cs1 [Example 86, (R,E)-3-(2-(2-aminothiazol-4-yl)-3-(pyridin-3-yl)acrylamido)-2-hydroxy-3,4-dihydro-2H-benzo[e][1,2]oxaborinine-8-carboxylic Acid] | 64 to 128 | < 64 |  |
| O=C(N[C@H]1Cc2cccc(C(=O)O)c2OB1O)/C(=N\O)c1cscn1 [Example 90, (R,Z)-2-hydroxy-3-(2-(hydroxyimino)-2-(thiazol-4-yl)acetamido)-3,4-dihydro-2H-benzo[e][1,2]oxaborinine-8-carboxylic Acid] | < 64 | 64 to 128 |  |
| O=C(N[C@H]1Cc2cccc(C(=O)O)c2OB1O)/C(=N\O)c1csc(S)n1 [Example 91, (R,Z)-2-hydroxy-3-(2-(hydroxyimino)-2-(2-mercaptothiazol-4-yl)acetamido)-3,4-dihydro-2H-benzo[e][1,2]oxaborinine-8-carboxylic Acid] | < 64 | > 128 |  |
| COc1ccc(CSc2nc(/C(=N/O)C(=O)N[C@H]3Cc4cccc(C(=O)O)c4OB3O)cs2)cc1 [Example 92, (R,Z)-2-hydroxy-3-(2-(hydroxyimino)-2-(2-((4-methoxybenzyl)thio)thiazol-4-yl)acetamido)-3,4-dihydro-2H-benzo[e][1,2]oxaborinine-8-carboxylic Acid] | < 64 | > 128 |  |
| O=C(N[C@H]1Cc2cccc(C(=O)O)c2OB1O)C(=NO)c1csc(-n2ccnc2)n1 [Example 93, (R)-3-(2-(2-(1H-imidazol-1-yl)thiazol-4-yl)-2-(hydroxyimino)acetamido)-2-hydroxy-3,4-dihydro-2H-benzo[e][1,2]oxaborinine-8-carboxylic Acid] | < 64 | > 128 |  |
| NCCN(CCN)c1nc(/C(=N/O)C(=O)N[C@H]2Cc3cccc(C(=O)O)c3OB2O)cs1 [Example 94, (R,Z)-3-(2-(2-(bis(2-aminoethyl)amino)thiazol-4-yl)-2-(hydroxyimino)acetamido)-2-hydroxy-3,4-dihydro-2H-benzo[e][1,2]oxaborinine-8-carboxylic Acid] | < 64 | > 128 |  |
| CC(C)O/N=C(\C(=O)N[C@H]1Cc2cccc(C(=O)O)c2OB1O)c1csc(N)n1 [Example 97, (R,Z)-3-(2-(2-aminothiazol-4-yl)-2-(isopropoxyimino)acetamido)-2-hydroxy-3,4-dihydro-2H-benzo[e][1,2]oxaborinine-8-carboxylic Acid] | 64 to 128 | > 128 |  |
| CCCO/N=C(\C(=O)N[C@H]1Cc2cccc(C(=O)O)c2OB1O)c1csc(N)n1 [Example 98, (R,Z)-3-(2-(2-aminothiazol-4-yl)-2-(propoxyimino)acetamido)-2-hydroxy-3,4-dihydro-2H-benzo[e][1,2]oxaborinine-8-carboxylic Acid] | < 64 | < 64 |  |
| CC(C)CO/N=C(\C(=O)N[C@H]1Cc2cccc(C(=O)O)c2OB1O)c1csc(N)n1 [Example 100, (R,Z)-3-(2-(2-aminothiazol-4-yl)-2-(isobutoxyimino)acetamido)-2-hydroxy-3,4-dihydro-2H-benzo[e][1,2]oxaborinine-8-carboxylic Acid] | < 64 | < 64 |  |
| O=C(N[C@H]1Cc2cccc(C(=O)O)c2OB1O)/C(=N\O)c1csc(NCCF)n1 [Example 101, (R,Z)-3-(2-(2-((2-fluoroethyl)amino)thiazol-4-yl)-2-(hydroxyimino)acetamido)-2-hydroxy-3,4-dihydro-2H-benzo[e][1,2]oxaborinine-8-carboxylic Acid] | > 128 | 64 to 128 |  |
| O=C(N[C@H]1Cc2cccc(C(=O)O)c2OB1O)/C(=N\O)c1csc(NCCO)n1 [Example 102, (R,Z)-2-hydroxy-3-(2-(2-((2-hydroxyethyl)amino)thiazol-4-yl)-2-(hydroxyimino)acetamido)-3,4-dihydro-2H-benzo[e][1,2]oxaborinine-8-carboxylic Acid] | > 128 | > 128 |  |
| O=C(N[C@H]1Cc2cccc(C(=O)O)c2OB1O)/C(=N/O)c1nnn[nH]1 [Example 103, (R,E)-2-hydroxy-3-(2-(hydroxyimino)-2-(1H-tetrazol-5-yl)acetamido)-3,4-dihydro-2H-benzo[e][1,2]oxaborinine-8-carboxylic Acid] | > 128 | > 128 |  |
| CC(O/N=C(\C(=O)N[C@H]1Cc2cccc(C(=O)O)c2OB1O)c1csc(N)n1)C(=O)NCCNCCN (stereo partly drawn) [Example 104, (3R)-3-((Z)-12-amino-2-(2-aminothiazol-4-yl)-5-methyl-6-oxo-4-oxa-3,7,10-triazadodec-2-enamido)-2-hydroxy-3,4-dihydro-2H-benzo[e][1,2]oxaborinine-8-carboxylic Acid] |  | < 64 | > 128 |
| NCCO/N=C(\C(=O)N[C@H]1Cc2cccc(C(=O)O)c2OB1O)c1csc(N)n1 [Example 105, (R,Z)-3-(2-((2-aminoethoxy)imino)-2-(2-aminothiazol-4-yl)acetamido)-2-hydroxy-3,4-dihydro-2H-benzo[e][1,2]oxaborinine-8-carboxylic Acid] | > 128 | < 64 |  |
| CNc1nc(/C(=N/O)C(=O)N[C@H]2Cc3cccc(C(=O)O)c3OB2O)cs1 [Example 106, (R,Z)-2-hydroxy-3-(2-(hydroxyimino)-2-(2-(methylamino)thiazol-4-yl)acetamido)-3,4-dihydro-2H-benzo[e][1,2]oxaborinine-8-carboxylic Acid] | > 128 | > 128 |  |
| CCNc1nc(/C(=N/O)C(=O)N[C@H]2Cc3cccc(C(=O)O)c3OB2O)cs1 [Example 107, (R,Z)-3-(2-(2-(ethylamino)thiazol-4-yl)-2-(hydroxyimino)acetamido)-2-hydroxy-3,4-dihydro-2H-benzo[e][1,2]oxaborinine-8-carboxylic Acid] | > 128 | > 128 |  |
| O=C(O)CNc1nc(/C(=N/O)C(=O)N[C@H]2Cc3cccc(C(=O)O)c3OB2O)cs1 [Example 108, (R,Z)-3-(2-(2-((carboxymethyl)amino)thiazol-4-yl)-2-(hydroxyimino)acetamido)-2-hydroxy-3,4-dihydro-2H-benzo[e][1,2]oxaborinine-8-carboxylic Acid] | > 128 | > 128 |  |
| NC(=O)CNc1nc(/C(=N/O)C(=O)N[C@H]2Cc3cccc(C(=O)O)c3OB2O)cs1 [Example 109, (R,Z)-3-(2-(2-((2-amino-2-oxoethyl)amino)thiazol-4-yl)-2-(hydroxyimino)acetamido)-2-hydroxy-3,4-dihydro-2H-benzo[e][1,2]oxaborinine-8-carboxylic Acid] | > 128 | > 128 |  |
| NCCON=C(C(=O)N[C@H]1Cc2cccc(C(=O)O)c2OB1O)c1nnn[nH]1 [Example 110, (R)-3-(2-((2-aminoethoxy)imino)-2-(1H-tetrazol-5-yl)acetamido)-2-hydroxy-3,4-dihydro-2H-benzo[e][1,2]oxaborinine-8-carboxylic Acid] | > 128 | > 128 |  |
| NCCn1nnc(C(=NO)C(=O)N[C@H]2Cc3cccc(C(=O)O)c3OB2O)n1 [Example 111, (R)-3-(2-(2-(2-aminoethyl)-2H-tetrazol-5-yl)-2-(hydroxyimino)acetamido)-2-hydroxy-3,4-dihydro-2H-benzo[e][1,2]oxaborinine-8-carboxylic Acid] | > 128 | > 128 |  |
| O=C(O)CO/N=C(/Cn1cncn1)C(=O)N[C@H]1Cc2cccc(C(=O)O)c2OB1O [Example 112, (R,Z)-3-(2-((carboxymethoxy)imino)-3-(1H-1,2,4-triazol-1-yl)propanamido)-2-hydroxy-3,4-dihydro-2H-benzo[e][1,2]oxaborinine-8-carboxylic Acid] | > 128 | > 128 |  |
